# According to patent publication US6559139B1, “Combination chemotherapy” (University of Pittsburgh of the Commonwealth System of …, priority 1997, dated 2003):
# How the values were obtained:
# [1] = serum calcium levels in normal mice treated with 1,25D3 with or without zoledronate
# Procedure: Normal C3H/HeJ mice were pretreated with 10 μg/kg body weight zoledronate and then treated with 0.25 μg 1,25D3 once a day for three days. Control animals received 1,25D3 alone, and one group of animals received only zoledronate. Following the last 1,25D3 treatment, blood was collected at 0, 24 and 48 hours from each mouse, and the serum calcium levels were measured.
# SCCVII/SF tumor [2] = assay: tumor regrowth assay (delay of tumor growth); type: in vivo, C3H/HeJ mice; details: for Tumor Regrowth Delay: mean±SD of the difference in time for treated and control tumors to reach 4× pretreatment size, Ro23-7553 continuous, cisplatin 6 mg/kg i.p.; for fractional tumor volume: vs either agent alone
# Procedure: SCCVII/SF tumor cells (5×10^5) were inoculated s.c. into the flank of the leg of C3H/HeJ mice. On day 9 post implantation, as the tumors were palpable (approximately 5×5 mm), animals were randomized for treatment with low dose i.p. […] After 7 days, 6 mg/kg body weight cytotoxic agent was injected i.p. Control animals received either treatment alone or no treatment. Control (no treatment) animals were given injection of vehicle (PBS) alone or sham pumps were implanted. Tumor growth was assessed by measuring the tumor diameter with calipers three times weekly. […] Post-treatment volumes were expressed as a fraction of pretreatment volume at the time of initial treatment. Tumor regrowth delay was calculated as the mean±standard deviation of the difference in time for treated and control tumor volumes to reach 4 times the pretreatment volume.
# [3] = hypercalcemia in treated SCCVII/SF tumor-bearing animals; type: in vivo, C3H/HeJ mice
# SCCVII/SF tumor [4] = assay: in vivo excision clonogenic tumor cell survival assay; set-up: species or system C3H/HeJ mice; details: for enhancement of clonogenic cell kill: p<0.001 ANOVA
# Procedure: The effect of 1,25D3 or Ro23-7553 alone and/or in combination with various cytotoxic agents on tumor cells in vivo was determined by a modification of the in vivo excision clonogenic tumor cell survival assay (Johnson et al., Cancer Chemother. Pharmacol., 32, 339-46 (1993)). Briefly, SCCVII/SF tumor bearing animals at 14 days post implantation were treated i.p. for 3 days with 1,25D3 or Ro23-7553 at either 0.5 mg/kg body weight/day or at varying doses of 0.03125-0.5 mg/kg body weight/day. […] After 24 hours, aliquots of minced tumor were enzymatically dissociated for 60 min at room temperature with a mixture of type I collagenase (37.5 mg/ml), DNAse (55 mg/ml) and EDTA (1%). Viable tumor cells (determined by trypan blue staining) were then plated at various dilutions. After 7 days incubation, colonies were counted, and numbers of clonogenic cells per gram of tumor were counted. The mean±standard deviation (SD) cell yield, cloning efficiency, and number of clonogenic cells for control (no treatment) tumors (n=40) averaged 139.4±38.2×10^6 viable tumor cells/g tumor, 27.0±0.56%, and 37.5±13.3×10^6 clonogenic tumor cells/g tumor, respectively. The surviving fraction per gram of tumor is defined as the number of clonogenic tumor cells per gram of treated tumor divided by the number of clonogenic tumor cells per gram of control (untreated) tumor. This assay is an accurate measure of in vivo anti-tumor activity; a surviving fraction less than 0.1 correlates with an actual decrease in tumor volume and an increase in tumor regrowth delay (Braunschweiger et al., Cancer Res., 48, 6011-16 (1988); Braunschweiger et al., Cancer Res., 51, 5454-60 (1991)).
# SCCVII/SF cells [5] = assay: in vitro clonogenic assay; type: cell-based, murine; details: for enhancement of clonogenic cell kill: p<0.001 ANOVA
# Procedure: The in vitro cytotoxicity of drug on tumor cells was determined via the in vitro clonogenic assay (McElwain et al., Mol. Cell. Diff., 3, 31-50 (1995)) with minor modifications as described herein. Briefly, murine SCCVII/SF cells were pre-treated with either 2 nM or 4 nM 1,25D3 or Ro23-7553. […] After 48 hours incubation with 1,25D3 or Ro23-7553, cells were treated for 2 hours with varying concentrations of cytotoxic agent, washed with RPMI 1640 plus FCS, and plated in various dilutions in 6-well tissue culture plates. Following a 7 day incubation at 37° C. in 5% CO2, monolayers were washed with saline, fixed with 100% methanol, and stained with 10% Giemsa; colonies were counted under light microscopy. The surviving fraction was calculated by dividing the cloning efficiency of treated cells by the cloning efficiency of untreated controls.
# SCCVII/SF cells [6] = details: 24 hr, 48 hr and 7 day incubation times; cited from earlier work
# [7] = test system: MKP-1 (a MAPK-specific phosphatase); assay: Western Blot of MKP-1 in SCC cells; type: cell-based; details: 10 nM 1,25D3; vs untreated cells
# Procedure: (§1) SCC cells were treated in vitro with 10 nM 1,25D3, and untreated cells served as a control. The level of phosphorylated MAPK was assessed at 24 and 48 hours post treatment. Using Western Blot analysis, the amounts of MAPK, MEK (the kinase responsible for phosphorylating MAPK), MKP-1 (a MAPK-specific phosphatase), and growth factor receptors (EGF, PDGF, and IGF1 growth factor receptors) were assessed as well. Additionally, the activity level of MEK was assessed by quantitative in vitro kinase assays.
# MAPK = assay: Western Blot of phosphorylated MAPK and MAPK in SCC cells; type: cell-based; details: 10 nM 1,25D3, vs untreated cells
# Procedure: as §1
# [8] = test system: EGF, PDGF, and IGF1 growth factor receptors; assay: Western Blot of growth factor receptors in SCC cells; type: cell-based; details: 10 nM 1,25D3; vs untreated cells
# Procedure: as §1
# MEK [9] = assay: Western Blot of MEK protein in SCC cells; type: cell-based; details: 10 nM 1,25D3; vs untreated cells
# Procedure: as §1
# MEK [10] = assay: quantitative in vitro kinase assay of MEK activity; type: cell-based; details: 10 nM 1,25D3; vs untreated cells
# Procedure: as §1
# [11] = clinical carboplatin / 1,25D3 schedule: carboplatin AUC and myelosuppression; type: in vivo, human; details: for mean AUC of carboplatin: dose calculated to achieve AUC=5, ±1.3
# Procedure: Patients with malignant tumors were subject to a treatment regimen involving carboplatin and 1,25D3, but 48 hours prior to treatment, each patient was placed on a low calcium diet (250-300 mg/48 hr) and maintained on that diet for at least 7 days.
# According to this regimen, each cycle lasts four weeks. For successive cycles, the dosage of 1,25D3 is increased by 30%. For the first two cycles, the patients were divided into two groups as follows:
# Group 1. On day 1, this group of patients was given carboplatin (intravenously as a 30-minute infusion in 100 ml of carrier) at a dose calculated to achieve AUC=5. 24 hours later, a plasma sample was taken to determine carboplatin AUC, and the patients were placed on a three-day regimen of subcutaneous 1,25D3 per the schedule indicated in Table 2.
# Group 2. On day 1, this group of patients was placed on a three-day regimen of subcutaneous 1,25D3. On day 3, the patients were given carboplatin at a dose calculated to achieve AUC=5. 24 hours later, a plasma sample was taken to determine carboplatin AUC.
# Following the first cycle, the groups switched between pretreatment and post treatment. For the third and subsequent cycles in this treatment, the patients were placed on a three-day regimen of subcutaneous 1,25D3. On day 3, the patients were given carboplatin. at a dose calculated to achieve AUC=5. 24 hours later, a plasma sample was taken to determine carboplatin AUC.
# Following the first two cycles, patients were assessed to determine the effect on carboplatin AUC by pretreatment vs. post treatment with 1,25D3.
compound,measurement,setting,value
O=P(O)(O)C(O)(Cn1ccnc1)P(=O)(O)O [zoledronate],"dehydration, piloerection, and cachexia attributable to hypercalcemia","[1]; vs control animals (1,25D3 alone)","less dehydration, piloerection, and cachexia"
"N.N.[Cl][Pt][Cl] [Cisplatin, cisplatin]",Tumor Regrowth Delay,SCCVII/SF tumor [2],4.4 ± 0.3
"C=C1/C(=C\C=C2/CCC[C@]3(C)C([C@H](C)CC#CC(C)(C)O)=CC[C@@H]23)C[C@@H](O)C[C@@H]1O [Ro23-7553, 1,25-dihydroxy-16-ene-23-yne-cholecalciferol]",hypercalcemia,"[3]; any of the Ro23-7553 doses (0.03125-0.5 mg/kg/day, 3 days) with cisplatin",No animals in either experimental approach became hypercalcemic
same,enhancement of clonogenic cell kill,"SCCVII/SF tumor [4]; Ro23-7553 0.5 mg/kg body weight/day i.p. 3 days, varying doses of cisplatin on day 3, vs cisplatin or Ro23-7553 alone",significant enhancement of clonogenic cell kill
same,enhancement of cisplatin-mediated tumor cell kill,"SCCVII/SF tumor [4]; Ro23-7553 0.03125-0.5 mg/kg body weight/day 3 days, cisplatin 6 mg/kg on day 3, vs either alone, p<0.01 ANOVA",significantly enhancing cisplatin-mediated tumor cell kill even at the lowest doses tested
same,enhancement of clonogenic cell kill,"SCCVII/SF cells [5]; pretreatment with 2 nM and 4 nM Ro23-7553, then 0.2-0.8 μg/ml cisplatin, vs cisplatin alone or concurrent administration",significantly enhanced clonogenic cell kill
same,anti-proliferative effects,SCCVII/SF cells [6],anti-proliferative effects are observed
same,fractional tumor volume,"SCCVII/SF tumor [2]; Ro23-7553 administered continuously, then cisplatin 6 mg/kg i.p., p<0.001 ANOVA",significant decrease in fractional tumor volume
same,Tumor Regrowth Delay,SCCVII/SF tumor [2],1.8 ± 0.8
"C=C1/C(=C\C=C2/CCC[C@]3(C)[C@@H]([C@H](C)CCCC(C)(C)O)CC[C@@H]23)C[C@@H](O)C[C@@H]1O [1,25D3, 1,25-dihydroxycholecalciferol]",amount of MKP-1,[7],higher amounts of MKP-1
same,hypercalcemia,"[3]; 1,25D3 0.2 μg/day 3 days with paclitaxel",No animals became hypercalcemic
same,hypercalcemia,"[3]; any of the 1,25D3 doses tested, with carboplatin 50 mg/kg",No animals became hypercalcemic
same,enhancement of clonogenic cell kill,"SCCVII/SF tumor [4]; 1,25D3 0.2 μg/day i.p. 3 days, varying doses of paclitaxel on day 3, vs paclitaxel alone",significant enhancement of clonogenic cell kill
same,enhancement of clonogenic cell kill,"SCCVII/SF tumor [4]; 1,25D3 0.5 mg/kg body weight/day i.p. 3 days, carboplatin 25-100 mg/kg on day 3, vs either alone",significant enhancement of clonogenic cell kill
same,enhancement of clonogenic cell kill,"SCCVII/SF tumor [4]; 1,25D3 varying doses i.p. 3 days, carboplatin 50 mg/kg on day 3, vs carboplatin alone","significant enhancement of clonogenic cell even at the lowest doses of 1,25D3"
same,level of phosphorylated MAPK,MAPK; 24 and 48 hours,less phosphorylated MAPK
same,amount of MAPK protein,MAPK,not affected
same,"amounts of EGF, PDGF, and IGF1 growth factor receptors",[8],significantly higher amounts
same,amount of MEK protein,MEK [9],slightly less MEK protein
same,serum calcium levels,"[1]; 24 hours after last 1,25D3 treatment (0.25 μg once a day, three days)",17.2 ± 1.1 mg/dL
same,serum calcium levels,"[1]; 48 hours after last 1,25D3 treatment (0.25 μg once a day, three days)",16.5 ± 1.1 mg/dL
same,enhancement of clonogenic cell kill over paclitaxel alone,"SCCVII/SF cells [5]; concurrent administration of 1,25D3 and paclitaxel",did not result in an enhancement of clonogenic cell kill
same,enhancement of clonogenic cell kill,"SCCVII/SF cells [5]; pretreatment with 2 nM 1,25D3 for 48 hours, then carboplatin, vs carboplatin alone or concurrent",significantly enhanced clonogenic cell kill
same,enhancement of clonogenic cell kill,"SCCVII/SF cells [5]; pretreatment with 1,25D3, then paclitaxel",significantly enhanced clonogenic cell kill
same,anti-proliferative effects,SCCVII/SF cells [6],anti-proliferative effects are observed
same,fractional tumor volume,"SCCVII/SF tumor [2]; 0.2 μg/mouse 1,25D3 continuously for two to eight days, then paclitaxel 40 mg/kg i.p.",significant decrease in fractional tumor volume
same,MEK activity profile,MEK [10],not significantly different
N.N.O=C([O-])C1(C(=O)[O-])CCC1.[Pt+2] [carboplatin],mean AUC of carboplatin,[11]; carboplatin D1,7800 ng·h/mL
same,mean AUC of carboplatin,[11]; carboplatin D3,6700 ng·h/mL
same,myleosuppression,"[11]; carboplatin followed by adjunctive 1,25D3, each patient",consistently less
same,"AUC of carboplatin when pretreated with 1,25D3 vs carboplatin given first","[11]; each patient, first two cycles",higher in each patient
